The values that follow are results of earlier work, collected in patent publication US20200179295A1, “MRI-DETECTABLE MULTILAYER MICROCAPSULES FOR ULTRASOUND-TRIGGERED DELIVERY OF PHARMACOLOGICALLY ACTIVE AGENTS” (THE UAB RESEARCH FOUNDATION, priority 2018, published 2020).

For the data set the following is noted: 1.5 T; Rohrer et al. 2005.

Take `CC(O)CN1CCN(CC(=O)[O-])CCN(CC(=O)[O-])CCN(CC(=O)[O-])CC1.[Gd+3]` (stereo not shown) [ProHance, gadoteridol]: the r1 was 4.1 mM⁻¹ s⁻¹.
